From patent US20090163476A1, “N-Phenyl Benzamide Derivatives as Sirtuin Modulators” (Sirtris Pharmaceuticals, Inc., priority 2005, published 2009)

Key:
Format in all cases: biochemical
[1] = molecular target: T1, SIRT1 (Homo sapiens, UniProt Q96EB6); assay: Fluorescence polarization assay of SIRT1 activity (p53-based peptide substrate); conditions: activation of SIRT1; peptide 1 for Compounds 1-18, peptide 2 for Compounds 19-164; read-out: ED50 FP
T1 sequence (Q96EB6 1-747): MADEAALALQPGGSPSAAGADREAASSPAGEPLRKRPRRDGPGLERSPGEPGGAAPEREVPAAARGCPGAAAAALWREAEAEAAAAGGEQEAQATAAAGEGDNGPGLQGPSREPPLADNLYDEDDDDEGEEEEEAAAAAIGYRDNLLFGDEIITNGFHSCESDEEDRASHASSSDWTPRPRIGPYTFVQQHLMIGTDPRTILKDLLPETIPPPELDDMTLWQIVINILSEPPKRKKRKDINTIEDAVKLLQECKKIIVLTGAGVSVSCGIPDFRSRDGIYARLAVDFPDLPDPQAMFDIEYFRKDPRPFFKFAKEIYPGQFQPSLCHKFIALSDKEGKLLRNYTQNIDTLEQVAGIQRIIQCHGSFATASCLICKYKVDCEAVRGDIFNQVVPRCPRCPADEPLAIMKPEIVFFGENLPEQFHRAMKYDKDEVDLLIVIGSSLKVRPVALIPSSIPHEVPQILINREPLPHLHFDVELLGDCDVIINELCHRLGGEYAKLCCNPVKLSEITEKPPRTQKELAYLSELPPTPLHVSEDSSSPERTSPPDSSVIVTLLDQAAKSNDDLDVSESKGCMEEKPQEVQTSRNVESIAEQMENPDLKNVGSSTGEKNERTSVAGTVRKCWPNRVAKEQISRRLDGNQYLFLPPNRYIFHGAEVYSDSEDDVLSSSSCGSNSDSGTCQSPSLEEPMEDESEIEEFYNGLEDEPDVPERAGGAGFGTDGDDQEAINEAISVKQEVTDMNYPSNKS
Protocol: A fluorescence polarization or mass spectrometry based assay was used to identify modulators of SIRT1 activity. The same assay may be used to identify modulators of any sirtuin protein. The fluorescence polarization assays utilizes one of two different peptides based on a fragment of p53, a known sirtuin deacetylation target. Compounds 1-18 were tested using a substrate containing peptide 1 having 20 amino acid residues as follows: Ac-EE-K(biotin)-[…](Ac)NleSTEG-K(M121)-EE-NH2 (SEQ ID NO: 1) wherein K(biotin) is a biotinolated lysine residue, K(Ac) is an acetylated lysine residue, Nle is norleucine and K(MR121) is a lysine residue modified by an MR121 fluorophore. This peptide is labeled with the fluorophore MR121 (excitation 635 nm/emission 680 nm) at the C-termini and biotin at the N-termini. The sequence of the peptide substrates are based on p53 with several modifications. In particular, all arginine and […] residues other than the acetylated lysine residues have replaced with serine so that the peptides are not susceptible to trypsin cleavage in the absence of deacetylation. In addition, the methionine residues naturally present in the sequences have been replaced with the norleucine because the methionine may be susceptible to oxidation during synthesis and purification. […] The peptide is labeled with the fluorophore 5TMR (excitation 540 nm/emission 580 nm) at the C-terminus. The sequence of the peptide substrate is also based on p53 with several modifications. In addition, the methionine residue naturally present in the sequence was replaced with the norleucine because the methionine may be susceptible to oxidation during synthesis and purification.
The peptide substrates were exposed to a sirtuin protein in the presence of NAD^+ to allow deacetylation of the substrate and render it sensitive to cleavage by trypsin. Trypsin was then added and the reaction was carried to completion (i.e., the deacetylated substrate is cleaved) releasing the MR121 or 5TMR fragment. Streptavidin is then added to the reaction where it can bind both the uncleaved substrate (i.e., any remaining acetylated substrate) and the non-fluorescent portion of the cleaved peptide substrate (i.e., the biotin containing fragment). The fluorescence polarization signal observed for the full length peptide substrates bound to streptavidin was higher than the fluorescence polarization signal observed for the released MR121 or 5TMR C-terminal fragment. In this way, the fluorescence polarization obtained is inversely proportional to the level of deacetylation (e.g., the signal is inversely proportional to the activity of the sirtuin protein). Results were read on a microplate fluorescence polarization reader (Molecular Devices Spectramax MD) with appropriate excitation and emission filters.
The fluorescence polarization assays using peptide 1 is conducted as follows: 0.5 μM peptide substrate and 150 μM βNAD^+ is incubated with 0.1 μg/mL of SIRT1 for 60 minutes at 37° C. in a reaction buffer (25 mM Tris-acetate pH8, 137 mM Na—Ac, 2.7 mM K—Ac, 1 mM Mg—Ac, 0.05% Tween-20, 0.1% Pluronic F127, 10 mM CaCl2, 5 mM DTT, 0.025% BSA, 0.15 mM Nicotinamide). Test compounds 1-18 were solubilized in DMSO and added to the reaction at 11 concentrations ranging from 0.7 μM to 100 μM.
Fluorescence polarization assays using peptide 2 is conducted as follows: 0.5 μM peptide substrate and 120 μM βNAD^+ were incubated with 3 nM SIRT1 for 20 minutes at 25° C. in a reaction buffer (25 mM Tris-acetate pH8, 137 mM Na—Ac, 2.7 mM K—Ac, 1 mM Mg—Ac, 0.05% Tween-20, 0.1% Pluronic F127, 10 mM CaCl2, 5 mM DTT, 0.025% BSA). Test compounds 19-56 were solubilized in DMSO and added to the reaction at 10 concentrations ranging from 300 μM to 0.15 μM in three-fold dilutions.
After the incubation with SIRT1, nicotinamide was added to the reaction to a final concentration of 3 mM to stop the deacetylation reaction and 0.5 μg/mL of trypsin was added to cleave the deacetylated substrate. […]

[2] = molecular target: T1, SIRT1; assay: SIRT1 fluorescence polarization or mass spectrometry based assay (format not given); conditions: inhibition of SIRT1 (Table 5)
[3] = molecular target: T1, SIRT1; assay: Mass spectrometry based assay of SIRT1 activity; parameters: key to FOLD ACTIVATION MS: A: Fold activation >250%; B: Fold Activation <250%; C: no fold activation; conditions: for EC50: activation of SIRT1, read-out: ED50 MS
Protocol: The mass spectrometry based assay utilizes a peptide having 20 amino acid residues as follows: […] The sequence of the peptide substrate is based on p53 with several modifications. […] Test compounds may be added to the reaction as described above. […] After the 25 minute incubation with SIRT1, 10 μL of 10% formic acid is added to stop the reaction. Reactions are sealed and frozen for later mass spec analysis. Determination of the mass of the substrate peptide allows for precise determination of the degree of acetylation (i.e. starting material) as compared to deacetylated peptide (product). […] This timepoint is the same as that used for test compounds and, within the linear range, the endpoint represents a change in velocity. For each of the above assays, SIRT1 protein was expressed and purified as follows. The SirT1 gene was cloned into a T7-promoter containing vector and transformed into BL21(DE3). The protein was expressed by induction with 1 mM IPTG as an N-terminal His-tag fusion protein at 18° C. overnight and harvested at 30,000×g. […] The protein was purified over a Ni-NTA column (Amersham) and fractions containing pure protein were pooled, concentrated and run over a sizing column (Sephadex S200 26/60 global). The peak containing soluble protein was collected and run on an Ion-exchange column (MonoQ). […] This protein was concentrated and dialyzed against dialysis buffer (20 mM Tris-HCl, 2 mM TCEP) overnight. The protein was aliquoted and frozen at −80° C. until further use.

Row | Structure (SMILES) | EC50 [1] [µM] | IC50 [2] [µM] | FOLD ACTIVATION MS [3] | EC50 [3] [µM]
1 | CC(=O)Oc1cc(C(=O)Nc2ccccc2C(=O)O)cc(C(=O)Nc2ccccc2C(=O)O)c1 [Compound 1] | < 50 |  |  | 
2 | O=C(Nc1cc(NC(=O)c2ccccc2)c(C(=O)O)cc1C(=O)O)c1ccccc1 [Compound 2] | > 150 |  |  | 
3 | O=C(Nc1ccccc1C(=O)O)c1cccc(C(=O)Nc2ccccc2C(=O)O)c1 [Compound 3] | 51 to 100 |  |  | 
4 | COc1cc(NC(=O)c2cccc(Br)c2)c(C(=O)O)cc1OC [Compound 5] | 51 to 100 |  |  | 
5 | COc1ccccc1C(=O)Nc1cccc(NC(=O)c2ccco2)c1 [Compound 6] | > 150 |  |  | 
6 | COc1ccccc1C(=O)Nc1cccc(-c2nc3ncccc3o2)c1 [Compound 7] | < 50 |  |  | 
7 | CCOc1cccc(C(=O)Nc2cc(OC)c(OC)cc2C(=O)O)c1 [Compound 8] | 51 to 100 |  |  | 
8 | CC1COCC(C)N1c1ccc(C(=O)NCc2cccc(CN)c2)cc1NC(=O)c1ccc2ccccc2c1 (stereo not shown) [Compound 9] | 101 to 150 |  |  | 
9 | COc1cc(C(=O)Nc2cc(Cl)ccc2C(=O)O)ccc1OC(C)=O [Compound 10] | > 150 |  |  | 
10 | O=C(O)c1ccc(NC(=O)c2cccc(NC(=O)c3cccs3)c2)cc1 [Compound 13] |  | < 50 |  | 
11 | CC(=O)Oc1ccc(C(=O)Nc2ccc(C(=O)O)cc2NC(=O)c2ccc(OC(C)=O)cc2)cc1 [Compound 14] |  | 51 to 100 |  | 
12 | O=C(Nc1cccc(-c2nc3ncccc3o2)c1)c1ccc(N2CCOCC2)cc1 [Compound 38] | > 150 |  | C | > 150
13 | O=C(Nc1cccc(-c2nc3ncccc3o2)c1)c1ccc(N2CCCCC2)cc1 [Compound 39] | > 150 |  | C | > 150
14 | COc1ccc(C(=O)Nc2cccc(-c3nc4ncccc4o3)c2)c(C(F)(F)F)c1 [Compound 40] | > 150 |  | C | > 150
15 | COc1ccc(C(=O)Nc2cccc(-c3nc4ncccc4o3)c2)cc1C(F)(F)F [Compound 41] | > 150 |  | C | > 150
16 | CN(C)c1cccc(C(=O)Nc2cccc(-c3nc4ncccc4o3)c2)c1 [Compound 42] | < 50 |  | B (Fold Activation <250%) | < 50
17 | CN(C)c1ccc(C(=O)Nc2cccc(-c3nc4ncccc4o3)c2)cc1 [Compound 43] | < 50 |  | B (Fold Activation <250%) | < 50
18 | N#Cc1cccc(C(=O)Nc2cccc(-c3nc4ncccc4o3)c2)c1 [Compound 44] |  | > 150 |  | 
19 | N#Cc1ccc(C(=O)Nc2cccc(-c3nc4ncccc4o3)c2)cc1 [Compound 45] | > 150 |  | C | > 150
20 | COc1cccc(OC)c1C(=O)Nc1cccc(-c2nc3ncccc3o2)c1 [Compound 46] | > 150 |  | C | > 150
21 | O=C(Nc1cccc(-c2nc3ncccc3o2)c1)c1ccc(N2CCCC2)cc1 [Compound 47] |  | 51 to 100 |  | 
22 | COc1cc(OC)c(C(=O)Nc2cccc(-c3nc4ncccc4o3)c2)c(OC)c1 [Compound 48] | > 150 |  | C | > 150
23 | COc1cccc(C(=O)Nc2cccc(-c3nc4ncccc4o3)c2)c1C [Compound 49] | > 150 |  | B (Fold Activation <250%) | < 50
24 | COc1cc(C)ccc1C(=O)Nc1cccc(-c2nc3ncccc3o2)c1 [Compound 51] | < 50 |  | B (Fold Activation <250%) | < 50
25 | COc1ccc(C(=O)Nc2cccc(-c3nc4ncccc4o3)c2)cc1OC [Compound 52] | < 50 |  | B (Fold Activation <250%) | < 50
26 | COc1ccc(C(=O)Nc2cccc(-c3nc4ncccc4o3)c2)c(OC)c1OC [Compound 53] | > 150 |  | C | > 150
27 | COc1ccc(C(=O)Nc2cccc(-c3nc4ncccc4o3)c2)c(OC)c1 [Compound 55] | < 50 |  | B (Fold Activation <250%) | < 50
28 | O=C(Nc1cccc(-c2nc3ncccc3o2)c1)c1ccccc1 [Compound 56] | > 150 |  | B (Fold Activation <250%) | < 50
